{"source": "patent US20090117083A1", "about": "“IMMUNOMODULATORY ALKALOIDS” (M N L PHARMA LIMITED, priority 2004, published 2009)", "key": {"spleen cells": {"tested_on": "spleen cells", "experiment": "Cytokine modulation in spleen cells (IFN-γ)", "format": "cell-based, BALB/c mice", "settings": "Table 3.1", "experimental": "BALB/c male and female mice bred and maintained at the University of Strathclyde under conventional conditions were used at varying age.\nCells suspensions were prepared by using the end of a syringe and grinding the spleen through a wire mesh. The cell suspension was then centrifuged at 1000 rpm for 5 minutes. To remove the erythrocytes, the cell pellet was resuspended in Boyle's solution (Tris 0.17M & Ammonium Chloride 0.16M) and centrifuged again for 5 minutes. The pellet was then washed in medium a further two times, then resuspended in 3 mls medium. A cell count was then carried out.\nAll spleen cell experiments were carried out in 96-well tissue culture plates. […] Unstimulated wells contained 100 μl of cells and 100 μl of medium. The stimulated wells contained 100 μl of cells plus 50 μl of LPS at 1 μg/ml or 50 μl anti-CD3 at 0.5 μg/ml and 50 μl of medium. The remaining wells contained 100 μl cells, 5 μl of MNLP compound and either 50 μl of anti-CD3 or medium alone.\nThe appropriate Mabs and standards were used according to the protocol described for IL-12 (described in Example 1, above)."}, "α-L-fucosidase": {"biological_target": "T1, α-L-fucosidase (Bos taurus, UniProt Q2KIM0)", "T1 construct": "purchased Sigma", "T1 sequence (Q2KIM0 23-468)": "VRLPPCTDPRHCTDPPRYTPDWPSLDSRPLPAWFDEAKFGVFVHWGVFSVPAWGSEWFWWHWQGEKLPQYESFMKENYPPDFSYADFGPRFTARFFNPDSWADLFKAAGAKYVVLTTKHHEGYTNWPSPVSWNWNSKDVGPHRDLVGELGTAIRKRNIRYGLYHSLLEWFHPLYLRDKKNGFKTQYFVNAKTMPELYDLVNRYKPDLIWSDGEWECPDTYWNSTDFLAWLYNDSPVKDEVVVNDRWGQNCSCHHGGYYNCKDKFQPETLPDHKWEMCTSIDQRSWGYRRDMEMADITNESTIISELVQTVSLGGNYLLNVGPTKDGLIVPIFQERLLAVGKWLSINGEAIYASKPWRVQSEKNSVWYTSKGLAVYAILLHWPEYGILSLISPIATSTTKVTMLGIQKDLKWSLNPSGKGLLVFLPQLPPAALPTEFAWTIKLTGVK", "experiment": "Glycosidase inhibition: α-L-fucosidase", "format": "biochemical, Bovine", "settings": "1 mg/ml; read-out: % inhibition, fucosidase", "experimental": "(§1) All enzymes were purchased from Sigma, as were the appropriate p-nitrophenyl substrates. Assays were carried out in microtitre plates. Enzymes were assayed in 0.1M citric acid/0.2M di-sodium hydrogen phosphate (McIlvaine) buffers at the optimum pH for the enzyme. All assays were carried out at 20° C. For screening assays the incubation assay consisted of 10 μl of enzyme solution, 10 μl of inhibitor solution (made up in water) and 50 μl of the appropriate 5 mM p-nitrophenyl substrate (3.57 mM final conc.) made up in McIlvaine buffer at the optimum pH for the enzyme.\n(§2) The reactions were stopped with 0.4M glycine (pH 10.4) during the exponential phase of the reaction, which was determined at the beginning of the assay using blanks with water, which were incubated for a range of time periods to measure the reaction rate using 5 mM substrate solution. Endpoint absorbances were read at 405 nm with a Biorad microtitre plate reader (Benchmark). Water was substituted for the inhibitors in the blanks."}, "α-D-glucosidase [1]": {"biological_target": "T2, α-D-glucosidase (Oryza sativa subsp. japonica, UniProt Q653V7)", "T2 construct": "purchased Sigma", "T2 sequence (Q653V7 34-885)": "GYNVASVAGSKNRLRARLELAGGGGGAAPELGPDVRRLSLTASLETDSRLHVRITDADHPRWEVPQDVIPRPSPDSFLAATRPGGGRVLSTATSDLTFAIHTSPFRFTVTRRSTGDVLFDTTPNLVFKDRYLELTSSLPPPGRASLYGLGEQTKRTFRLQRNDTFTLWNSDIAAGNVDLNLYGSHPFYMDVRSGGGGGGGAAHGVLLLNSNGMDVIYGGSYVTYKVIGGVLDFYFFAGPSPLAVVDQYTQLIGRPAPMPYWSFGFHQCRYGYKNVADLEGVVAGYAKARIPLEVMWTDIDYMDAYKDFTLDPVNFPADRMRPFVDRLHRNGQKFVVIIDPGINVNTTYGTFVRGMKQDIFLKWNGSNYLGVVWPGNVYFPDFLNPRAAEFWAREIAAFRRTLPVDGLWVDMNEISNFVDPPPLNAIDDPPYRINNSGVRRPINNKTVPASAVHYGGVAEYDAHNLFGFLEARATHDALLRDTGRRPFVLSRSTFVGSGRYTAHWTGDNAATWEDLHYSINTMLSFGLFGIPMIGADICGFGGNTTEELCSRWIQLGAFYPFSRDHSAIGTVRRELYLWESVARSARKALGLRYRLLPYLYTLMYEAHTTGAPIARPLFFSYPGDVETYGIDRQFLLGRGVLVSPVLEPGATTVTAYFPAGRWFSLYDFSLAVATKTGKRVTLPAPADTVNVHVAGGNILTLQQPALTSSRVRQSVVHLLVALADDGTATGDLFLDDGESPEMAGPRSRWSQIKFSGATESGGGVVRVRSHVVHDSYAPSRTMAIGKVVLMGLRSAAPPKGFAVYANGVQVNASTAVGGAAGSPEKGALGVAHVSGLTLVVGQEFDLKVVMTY", "experiment": "Glycosidase inhibition: α-D-glucosidase, rice", "format": "biochemical, rice (Oryza sativa)", "settings": "1 mg/ml; read-out: % inhibition, gluc (rice)", "experimental": "as §1, §2"}, "[2]": {"tested_on": "N-acetyl-β-D-glucosaminidase", "experiment": "Glycosidase inhibition: N-acetyl-β-D-glucosaminidase", "format": "biochemical, Bovine", "settings": "1 mg/ml", "experimental": "as §1, §2"}, "β-D-glucosidase": {"tested_on": "β-D-glucosidase", "experiment": "Glycosidase inhibition: β-D-glucosidase, almond", "format": "biochemical, Almonds (Prunus sp.)", "settings": "1 mg/ml", "experimental": "as §1, §2"}, "α-D-glucosidase [3]": {"tested_on": "α-D-glucosidase", "experiment": "Glycosidase inhibition: α-D-glucosidase, Bacillus", "format": "biochemical, Bacillus stearothermophilus", "settings": "1 mg/ml", "experimental": "as §1, §2"}, "Naringinase": {"tested_on": "Naringinase", "experiment": "Glycosidase inhibition: Naringinase", "format": "biochemical, Penecillium decumbens", "settings": "1 mg/ml", "experimental": "as §1, §2"}, "[4]": {"tested_on": "spleen cells from Leishmania major infected BALB/c mice", "experiment": "Th1:Th2 response in non-healing leishmaniasis model, spleen cells ex vivo", "format": "cell-based", "settings": "for IFN-γ: Table 10.1"}, "[5]": {"tested_on": "Influenza vaccine-specific IgG, IgG1 and IgG2a", "parameters": "species or system Balb/c mice", "settings": "mouse, in vivo"}, "dendritic cells": {"tested_on": "dendritic cells", "settings": "treatment alone"}, "[6]": {"tested_on": "glycosidase enzymes of Table 4.1", "experiment": "Glycosidase inhibition screening, whole enzyme panel", "format": "biochemical", "settings": "1 mg/ml", "experimental": "as §1, §2"}, "α-D-mannosidase": {"biological_target": "T3, α-D-mannosidase (Canavalia ensiformis, UniProt C0HJB3)", "T3 construct": "purchased Sigma", "T3 sequence (C0HJB3 whole entry)": "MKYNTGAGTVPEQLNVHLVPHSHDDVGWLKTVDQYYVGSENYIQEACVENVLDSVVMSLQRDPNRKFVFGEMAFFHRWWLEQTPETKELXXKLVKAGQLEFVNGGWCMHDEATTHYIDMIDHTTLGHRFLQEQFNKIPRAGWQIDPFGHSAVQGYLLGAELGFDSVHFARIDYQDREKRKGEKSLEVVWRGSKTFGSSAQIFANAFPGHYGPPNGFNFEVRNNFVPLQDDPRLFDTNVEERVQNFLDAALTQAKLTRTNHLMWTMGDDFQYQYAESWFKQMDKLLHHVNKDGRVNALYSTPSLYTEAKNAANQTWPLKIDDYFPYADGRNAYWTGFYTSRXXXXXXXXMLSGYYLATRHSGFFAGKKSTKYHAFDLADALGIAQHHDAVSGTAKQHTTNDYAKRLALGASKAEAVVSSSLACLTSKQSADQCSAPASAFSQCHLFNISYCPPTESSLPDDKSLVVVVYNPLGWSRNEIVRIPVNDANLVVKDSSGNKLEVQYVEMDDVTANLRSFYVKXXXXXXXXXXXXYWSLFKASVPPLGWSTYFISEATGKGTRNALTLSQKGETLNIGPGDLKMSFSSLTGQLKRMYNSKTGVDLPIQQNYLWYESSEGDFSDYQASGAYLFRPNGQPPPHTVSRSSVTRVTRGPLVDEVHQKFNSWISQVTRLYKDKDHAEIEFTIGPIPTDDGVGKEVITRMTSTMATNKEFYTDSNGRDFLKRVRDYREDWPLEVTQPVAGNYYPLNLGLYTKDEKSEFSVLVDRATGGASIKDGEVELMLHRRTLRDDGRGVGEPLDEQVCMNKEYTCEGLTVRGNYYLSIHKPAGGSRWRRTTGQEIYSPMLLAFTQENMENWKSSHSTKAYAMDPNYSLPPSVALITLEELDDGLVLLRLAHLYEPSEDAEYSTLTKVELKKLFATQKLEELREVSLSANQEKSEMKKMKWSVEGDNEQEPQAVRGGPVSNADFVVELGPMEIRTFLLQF", "experiment": "Glycosidase inhibition: α-D-mannosidase", "format": "biochemical, Jack beans (Canavalia ensiformis)", "settings": "read-out: % inhibition, mannosidase", "experimental": "All enzymes were purchased from Sigma, as were the appropriate p-nitrophenyl substrates. Assays were carried out in microtitre plates. Enzymes were assayed in 0.1M citric acid/0.2M di-sodium hydrogen phosphate (McIlvaine) buffers at the optimum pH for the enzyme. All assays were carried out at 20° C.\nEndpoint absorbances were read at 405 nm with a Biorad microtitre plate reader (Benchmark). Water was substituted for the inhibitors in the blanks."}}, "data": [{"smiles": "OC[C@H]1[C@@H](O)[C@H](O)[C@H]2[C@@H](O)[C@@H](O)CN21", "note": "[3,7-diepi-casuarine (10), (1R,2R,3S,6S,7R,7aR)-3-(hydroxymethyl)-1,2,6,7-tetrahydroxypyrolizidine]", "values": [{"measurement": "IFN-γ", "setting": "spleen cells; + αCD3", "value": 13.50, "unit": "ng/mL"}, {"measurement": "IFN-γ", "setting": "spleen cells; treatment alone", "value": 0.22, "unit": "ng/mL"}, {"measurement": "inhibition at 1000 µg/mL", "setting": "α-L-fucosidase", "value": 5, "unit": "%"}, {"measurement": "inhibition at 1000 µg/mL", "setting": "α-D-glucosidase [1]", "value": 7, "unit": "%"}, {"measurement": "% inhibition, N-acetyl-β-gluc", "setting": "[2]", "value": "−6", "unit": "%"}, {"measurement": "% inhibition, glucosidase", "setting": "β-D-glucosidase", "value": 5, "unit": "%"}, {"measurement": "% inhibition, gluc (Bacillus)", "setting": "α-D-glucosidase [3]", "value": "−7", "unit": "%"}, {"measurement": "% inhibition, Naringinase", "setting": "Naringinase", "value": 6, "unit": "%"}, {"measurement": "IFN-γ", "setting": "[4]; + L. major Ag", "value": 5.5, "unit": "ng/mL"}, {"measurement": "IFN-γ", "setting": "[4]; treatment alone", "value": "~0.5", "unit": "ng/mL"}, {"measurement": "IL-5", "setting": "[4]; Table 10.2, + αCD3", "value": 150, "unit": "pg/mL"}, {"measurement": "Th2-skewed immune response profile", "setting": "[4]; ex vivo", "value": "clearly reversed"}, {"measurement": "influenza-specific IgG1 response versus vaccine alone", "setting": "[5]", "value": "statistically significant increased"}, {"measurement": "influenza-specific IgG2a responses versus vaccine alone", "setting": "[5]", "value": "No significant differences"}, {"measurement": "influenza-specific IgGtotal response versus vaccine alone", "setting": "[5]", "value": "statistically significant increased"}, {"measurement": "IL-2", "setting": "dendritic cells", "value": 0.00, "unit": "units/ml"}, {"measurement": "inhibition of the enzymes tested", "setting": "[6]", "value": "do not significantly inhibit any of the enzymes tested"}, {"measurement": "inhibition at 1000 µg/mL", "setting": "α-D-mannosidase", "value": 8, "unit": "%"}]}]}
